Measured values from EP0474580B1, “Use of 1-[3-(dimethylamino)propyl]-1-phenylphthalenes for the treatment of cerebrovascular disorders” (priority 1990, dated 1992).
Marks after values point to notes of the source that are not given here.

Assays:
[1] = system: KCN-induced coma; assay: KCN-induced coma in mice; type: in vivo, mice (Crj:ICR); details: for coma time: vs vehicle
Procedure: Male mice (Crj:ICR) weighing 20-30 g were used. The mice were fasted for one day. The drugs, dissolved in saline, were injected intraperitoneally. 30 min after the injection, KCN, dissolved in saline, was injected intravenously at a dose of 1.3 mg/kg. The duration of disappearance of righting reflex was measured as coma time.

[2] = system: depression associated with Alzheimer's disease; details: C.G. Gottfries, Psychopharmacology, 1988; cited from earlier work
[3] = system: carbon dioxide-induced amnesia; assay: Carbon dioxide-induced amnesia in rats (one-trial passive avoidance test); type: in vivo, Sprague-Dawley (CD) rats; details: for group mean 'step-through' times: oral
Description: The test employed was a one-trial passive avoidance test in rats, using carbon dioxide asphyxiation to induce amnesia. Female Sprague-Dawley (CD) rats (A. Tick & Son Ltd.) in the body weight range 160-180g were used for the study. The one-trial passive avoidance apparatus consisted of a 32 x 32 x 32 cm chamber with opaque walls and a metal grid floor. A 6 cm wide , 25 cm long runway protruded from the front wall of the chamber. The runway was illuminated while the chamber was dark. When placed on the runway, a rat could enter the chamber through a 6 x 6 cm opening. A scrambled footshock could be delivered through the metal grid floor of the chamber. On the first day of the experiment, the rats received three pre-treatment training trials, during which each animal was placed on the end of the runway and the time taken to enter the chamber (the 'step-through' latency) was determined. On the second day of the experiment, groups of 10 animals were treated p.o. with test compound dissolved in saline or with saline. One hour after administration, an acquisition trial was performed. This was similar to a training trial, except that the rats received a footshock of 1.0 mA for 10 s commencing 10 s after entering the chamber. Immediately after the application of the footshock the animals were subjected to amnesic treatment. Amnesic treatment consisted of placing the rats in a box filled with carbon dioxide until respiratory arrest occurred; the rats were then revived by artificial respiration. 24 Hours after the acquisition trial, a single retrieval trial was given to each rat and the time taken to enter the chamber ('step-through' latency) was recorded for each animal.

[4] = system: vascular dementia (VD, incl. MID); details: patients with vascular dementia (VD, incl. MID); Nyth et al. 1989; cited from earlier work
[5] = system: moderate dementia of Alzheimer's type (AD/SDAT) or multi-infarct dementia (MID); details: patients with moderate AD/SDAT or MID; Nyth et al. 1988/1990; cited from earlier work
[6] = system: ischemia induced hippocampal neuronal damage; assay: Ischemia-induced hippocampal death in gerbils; type: in vivo, Mongolian gerbils; details: for Survival neurons/mm mean: counted along CA1 after seven days; for protective effect against neuronal lesions: vs vehicle
Procedure: Test compounds were administered intraperitoneally to Male Mongolian gerbils 30 min before carotid occlusion. Carotid occlusion time was 5 min . Seven days after recovery, the animals were killed, brains removed, sectioned and surviving neurons were counted along CA1 in the hippocampus.

[7] = Toxicity study, oral administration in rats; type: in vivo; details: 350 mg/kg orally, male and female SD rats, observed for one week
Description: In toxicity studies male and female SD rats ranging in weight from 170 g to 200 g were used one day after fasting.

[8] = system: passive avoidance in ischemic gerbils; assay: Step-down passive avoidance in ischemic gerbils; type: in vivo; details: for Step-down latency [log(s)] Mean: ischemic gerbils, testing phase (max. 60 s); for latency of ischemic gerbils (testing phase): vs ischemic control
Procedure: The test employed was step-down passive avoidance in gerbils treated with test compounds prior to occlusion of carotid arteries followed by acquisition trial (training phase).
Test compounds were administered intraperitoneally to gerbils 30 min prior to carotid occlusion or ketamine was administered intraperitoneally 10 min prior to carotid occlusion. The gerbils were anesthetized with 2% halothane contained in a mixture of 70% nitrogen and 30% oxygen. The right and left common carotid arteries were occluded for 5 min. The gerbils were trained for 5 min in a step-down type passive avoidance chamber (16x16x20 cm) two days after induced ischemia. Each gerbil was placed on a safety platform (6x16x20 cm) in the chamber and received a series of mild foot shocks (0.1 mA for 3 s every 6 s), when the gerbil stepped down to a floor made of metal rods. Gerbils were returned to the safety platform for testing 24 h later and their step-down latencies to the grid floor were recorded (max. 60 s). RESULTS

[9] = system: ischemia-induced death in bilateral carotid arterial ligation (BCAL); assay: Brain ischemia-induced death in mice (bilateral carotid arterial ligation); type: in vivo, ICR MICE
Procedure: Male ICR MICE (Charles River) weighing 30 - 40 g were used after they were fasted for 1 day.
[…] Surviving mice were observed over 4 h.

CN(C)CCCC1(c2ccc(F)cc2)OCc2cc(C#N)ccc21 (stereo not drawn) [Citalopram, citalopram]
Coma time (s) Mean ([1]; 1.25 mg/kg i.p. 30 min before KCN 1.3 mg/kg i.v.): 38.5 s | Coma time (s) Mean ([1]; 2.5 mg/kg i.p. 30 min before KCN 1.3 mg/kg i.v.): 33.2 s | Coma time (s) Mean ([1]; 5 mg/kg i.p. 30 min before KCN 1.3 mg/kg i.v.): 35.0 s | Coma time (s) Mean ([1]; 10 mg/kg i.p. 30 min before KCN 1.3 mg/kg i.v.): 27.4 s | coma time ([1]; 10 mg/kg intraperitoneal): significantly reduced coma time | effect against depression associated with Alzheimer's disease [2]: effective | Latency ([3]; 5 mg/kg p.o. one hour before acquisition trial, CO2 treatment +, retrieval trial 24 h later (max. 180 s)): 31.2 s | Latency (s) ([3]; 10 mg/kg p.o. one hour before acquisition trial, CO2 treatment +, retrieval trial 24 h later (max. 180 s)): 77.2** s | Latency (s) ([3]; 20 mg/kg p.o. one hour before acquisition trial, CO2 treatment +, retrieval trial 24 h later (max. 180 s)): 114.3*** s | group mean 'step-through' times ([3]; 2 highest doses tested (i.e. 20 and 40 mg/kg)): marked and highly significant increase | group mean 'step-through' times ([3]; all doses tested, vs saline-treated control group): dose-related increases | emotional disturbances [4]: no significant improvement | effect on intellectual functions [5]: did not appear to have effect | emotional lability, motivation, confusion, fear-panic, irritation, reduced mood and restlessness [5]: significant improvements | Survival neurons/mm mean ([6]; 20 mg/kg i.p. 30 min before 5 min carotid occlusion): 38.0 neurons/mm | protective effect against neuronal lesions ([6]; 20 mg/kg): weak but non-significant protective effect | Survival neurons/mm mean ([6]; 40 mg/kg i.p. 30 min before 5 min carotid occlusion): 95.8 neurons/mm | protective effect against neuronal lesions ([6]; 40 mg/kg): significant (p < 0.05 ) protective effect | deaths [7]: no deaths were observed | Step-down latency [log(s)] Mean ([8]; 20 mg/kg i.p. 30 min prior to carotid occlusion): 1.386 log(s) | latency of ischemic gerbils (testing phase) ([8]; 20 mg/kg): significantly increased the latency

CC(C(O)c1ccc(O)cc1)N1CCC(Cc2ccccc2)CC1 (stereo not drawn) [Ifenprodil]
Survival rate (%) 2 h after BCAL ([9]; 30 mg/kg,p.o., 30 min prior to ligation, 2 h after BCAL): 47** % | Survival rate (%) 4 h after BCAL ([9]; 30 mg/kg,p.o., 30 min prior to ligation, 4 h after BCAL): 20% | ischemia-induced death / survival rate 2 h after ligation ([9]; 30 mg/kg, 2 h after bilateral carotid arterial ligation, vs saline): significantly increased survival rate | ischemia-induced death / survival rate 4 h after ligation ([9]; 30 mg/kg, 4 h after bilateral carotid arterial ligation, vs saline): did not significantly increase survival rate

C1=Cc2cccc(OCC3CNCCO3)c2C1 (stereo not drawn) [Indeloxazine, reference compound]
Coma time (s) Mean ([1]; 20 mg/kg i.p. 30 min before KCN 1.3 mg/kg i.v.): 13.8 s | coma time ([1]; 20 mg/kg): significantly reduced the coma time | Step-down latency [log(s)] Mean ([8]; 40 mg/kg i.p. 30 min prior to carotid occlusion): 1.085 log(s) | latency of ischemic gerbils (testing phase) ([8]; 40 mg/kg): not significantly different

CNC1(c2ccccc2Cl)CCCCC1=O (stereo not drawn) [Ketamine, reference compound]
Survival neurons/mm mean ([6]; 100 mg/kg i.p. before 5 min carotid occlusion): 174.5 neurons/mm | protective effect against neuronal lesions ([6]; 100 mg/kg): significant (p < 0.01) protective effect | Step-down latency [log(s)] Mean ([8]; 120 mg/kg i.p. 10 min prior to carotid occlusion): 1.348 log(s) | latency of ischemic gerbils (testing phase) ([8]; 120 mg/kg): significantly increased the latency

NC(=O)CN1CCCC1=O [Piracetam, reference compound]
Latency (s) ([3]; 300 mg/kg p.o. one hour before acquisition trial, CO2 treatment +, retrieval trial 24 h later (max. 180 s)): 108.8*** s | time of entry ('step-through' latency) compared with vehicle ([3]; oral doses of 40 or 1000 mg/kg, indicates no marked muscle incoordination or CNS effects): no significant differences | 'step-through' latencies ([3]; piracetam treatment, dose not given): statistically significantly longer
